Experimental data from patent publication US12122811B2, “BDNF mimetic peptide amphiphiles” (Northwestern University, priority 2018, dated 2024).
Positions of bridges follow the written chain, without caps; N, C: chain ends. Non-standard residues stand in square brackets, D forms with d. Residues, ends and D or L forms follow the SMILES beside them. Chains are numbered I, II in the order given. *: point of attachment. PEG6 = NCCOCCOCCOCCOCCOCCOCCC(=O)O; Palmitoyl = CCCCCCCCCCCCCCCC(=O)*

Columns and labels:
TrkB receptor = target: T1, TrkB receptor (Mus musculus, UniProt P15209); experiment: TrkB receptor phosphorylation (p-TrkB) by western blot in primary cortical neurons; format: cell-based; details: for TrkB phosphorylation after pre-treatment with inhibitor K252a: K252a 2 h prior to treatment, 6 h post-treatment
T1 construct: Protein was extracted from primary neuronal cultures; endogenous in cells; host or cells: primary cortical neurons from E16 CD1 mouse embryos, 14 DIV
Description: 2.3.2. Dissection of Embryonic Primary Cortical Neurons. Neurons were obtained from embryonic brains as described elsewhere.^2 Briefly, time-pregnant mouse was sacrificed by cervical dislocation and the embryos were extracted at embryonic day 16 (E16). Cerebral cortices were dissected from the mouse embryos and meninges were removed in a solution of Hank's Balanced Salt Solution (HBSS) with 1% pen-strep (Invitrogen) and then digested with trypsin (Invitrogen) and DNAse (Sigma-Aldrich) for 10 min at 37° C. The tissue was mechanically dissociated, centrifuged at 1000 g for 5 min, and resuspended in CO2-equilibrated Neurobasal (NB) neuronal culture medium (Invitrogen) supplemented with 10% normal horse serum (NHS) (Invitrogen), 1% pen-strep (Invitrogen), 0.5 mM L-glutamine (Invitrogen), and 5.8 μL NaHCO3/mL (Sigma-Aldrich). The cell suspension was pre-plated at 37° C. for 30 min. Afterwards, the supernatant was collected, passed through a cell strainer with 100 μm pore size and centrifuged at 1000 g for 5 min. The pellet was resuspended in NB neuronal culture medium (1% NHS, 1% pen-strep, 0.5 mM L-glutamine, 22 μM glutamic acid (Sigma-Aldrich), 2% B27 (Gibco), and 5.8 μL NaHCO3/mL (Sigma-Aldrich), and plated at different densities (depending on the type of experiment, see below) directly on tissue culture plates coated with poly-D-lysine (Sigma-Aldrich). After 24 hs, the medium was replaced with serum-free neuronal culture medium (1% pen-strep, 0.5 mM L-glutamine, 2% B27, 5.8 μL NaHCO3/mL). Under these conditions, we obtained a neuron-enriched culture with a composition of approximately 10% glial cells.
BDNF PA Treatments and Cell Culture Procedures. Treatments were prepared by dissolving PA (including E2 Filler, E2 Filler+E4PEG, E2 Filler+Linear BDNF, E2 Filler+BDNF PAs) and BDNF peptide at different concentrations (0.5, 1.0 or 5.0 μM), in media without serum or B27 supplement or starvation media. Unless otherwise noted, BDNF PA, Linear BDNF PA, or E4PEG PAs were co-assembled at 10 mol % with E2 filler PA (total concentration of PA was 5.0, 10.0, or 50.0 μM respectively). For the co-assembly ratio study, BDNF PA was co-assembled at 10, 20, 50, 70, 90, and 100 mol %. Human/Murine/Rat BDNF protein (Peprotech) was resuspended at different concentrations (0.25, 0.5 and 1 nM) in starvation media.
For western blot, cells were cultured in 6 well plates at a density of approximately 900,000 cells/well for 14 DIV before being treated. Treatments were added for 2, 4, 6, 8, 12 or 24 h in vitro before protein was harvested. […] Protein was extracted after six hours of treatment.
Western Blot. Protein was extracted from primary neuronal cultures with Halt Protease and Phosphatase Inhibitor Cocktail (Thermo Scientific) and a BCA assay (Thermo Scientific) was performed to determine protein content of each sample. Cell protein was loaded into and separated using a 4-20% SDS-PAGE gel (Bio-Rad). It was then electrotransferred from the gel to a nitrocellulose membrane (Bio-Rad). The membranes were blocked with 5% milk solution (Bio-Rad) for 30 minutes followed by an overnight incubation with primary antibodies at 4° C. The following primary antibodies were used: rabbit anti-pTrkB (1:1000, Cell Signaling), rabbit anti-TrkB (1:1000, Cell Signaling), rabbit anti-Actin (1:2000, Sigma Aldrich), mouse anti-Actin (1:2000, Sigma Aldrich), rabbit anti-pPLCγ (1:1000, Cell Signaling), rabbit anti-PLCγ (1:1000, Cell Signaling), rabbit anti-pAKT (1:2000, Cell Signaling), mouse anti-AKT (1:2000, Cell Signaling), rabbit anti-pERK1+ERK2 (1:1000, Abcam), rabbit anti-ERK 1/2 (1:1000, Cell Signaling), rabbit anti-PSD95 (1:1000, Abcam), rabbit anti-MAP-2 (1:2000, BioLegend), and mouse anti-Tuj-1 (1:1000, BioLegend). Membranes were then incubated with their corresponding secondary HRP-conjugated antibodies (1:1000; ThermoFisher). Protein signals were detected using Radiance Bioluminescent ECL substrate (Azure Biosystems). […]

neuronal cells = experiment: Neuronal maturation markers (MAP2, PSD95) by immunocytochemistry and western blot; format: cell-based, mouse; details: neuronal cells (14 DIV) cultured during 16 DIV with treatment
Description: Western Blot. Protein was extracted from primary neuronal cultures with Halt Protease and Phosphatase Inhibitor Cocktail (Thermo Scientific) and a BCA assay (Thermo Scientific) was performed to determine protein content of each sample. Cell protein was loaded into and separated using a 4-20% SDS-PAGE gel (Bio-Rad). It was then electrotransferred from the gel to a nitrocellulose membrane (Bio-Rad). The membranes were blocked with 5% milk solution (Bio-Rad) for 30 minutes followed by an overnight incubation with primary antibodies at 4° C. […] Protein signals were detected using Radiance Bioluminescent ECL substrate (Azure Biosystems). Densitometry analysis, standardized to total receptor content or Actin as a control for protein loading, was performed using ImageJ software.^3 For quantification, triplicate samples were analyzed and at least two different experiments were conducted. […]

T1 sequence (P15209 32-821): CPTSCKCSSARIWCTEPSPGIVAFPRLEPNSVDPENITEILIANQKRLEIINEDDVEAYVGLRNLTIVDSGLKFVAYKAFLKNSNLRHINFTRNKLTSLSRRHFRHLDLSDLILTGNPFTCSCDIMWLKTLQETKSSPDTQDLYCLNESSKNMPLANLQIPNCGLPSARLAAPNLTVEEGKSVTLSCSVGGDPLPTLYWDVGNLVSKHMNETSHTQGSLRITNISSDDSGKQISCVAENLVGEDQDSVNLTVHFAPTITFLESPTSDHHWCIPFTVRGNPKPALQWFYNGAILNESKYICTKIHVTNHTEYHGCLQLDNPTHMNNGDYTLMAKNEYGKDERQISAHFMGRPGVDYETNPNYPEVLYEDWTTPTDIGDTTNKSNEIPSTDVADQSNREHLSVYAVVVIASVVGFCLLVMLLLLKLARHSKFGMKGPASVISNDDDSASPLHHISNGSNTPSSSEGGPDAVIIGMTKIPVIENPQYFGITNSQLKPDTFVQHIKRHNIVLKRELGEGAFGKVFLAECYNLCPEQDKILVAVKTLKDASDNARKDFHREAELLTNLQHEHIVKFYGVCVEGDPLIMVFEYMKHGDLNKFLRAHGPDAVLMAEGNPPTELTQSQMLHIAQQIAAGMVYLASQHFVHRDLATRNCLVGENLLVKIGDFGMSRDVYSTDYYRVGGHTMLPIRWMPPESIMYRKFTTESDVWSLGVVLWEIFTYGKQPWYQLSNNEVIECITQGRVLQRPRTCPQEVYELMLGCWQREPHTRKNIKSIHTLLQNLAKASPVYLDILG

Row | Molecule | dose dependence of TrkB activation (TrkB receptor; 0.5, 1.0 and 5.0 μM, 6 h) | activation of TrkB receptor, co-assembly ratio study (TrkB receptor; 10-50 mol % BDNF PA co-assembled with E2 Filler PA, 6 h) | activation of TrkB receptor, co-assembly ratio study (TrkB receptor; 90-100 mol % BDNF PA (do not form fibers), 6 h) | TrkB phosphorylation after pre-treatment with inhibitor K252a (TrkB receptor) | MAP2 expression (neuronal maturation marker) (neuronal cells) | persistence of p-TrkB (TrkB receptor; BDNF protein 0.25 nM, time course to 24 h)
1 | CCCCCCCCCCCCCCCC(=O)N[C@H](C(=O)N[C@H](C(=O)N[C@@H](C)C(=O)N[C@@H](C)C(=O)N[C@@H](CCC(=O)O)C(=O)N[C@@H](CCC(=O)O)C(=O)N[C@@H](CCC(=O)O)C(=O)N[C@@H](CCC(=O)O)C(=O)NCCOCCOCCOCCOCCOCCOCCC(=O)NCCCC[C@@H]1NC(=O)[C@H]2CCCN2C(=O)[C@H](CCCNC(=N)N)NC(=O)[C@H](CCCCN)NC(=O)[C@H](CCCCN)NC1=O)C(C)C)C(C)C [BDNF PA, RKK(aK)(dP)-(PEG6 Spacer)-EEEEAAVV-C16 (SEQ ID NO: 5)] (I: Palmitoyl-VVAAEEEE[PEG6] / II: cyclo(KKKR[dP]); amide I:C-II:1) | no dose-dependent activation of TrkB | increase in activation of TrkB receptor in comparison with the control conditions | unable to activate the receptor to the same degree | completely blocked | significant increase | –
2 | BDNF protein: Human/Murine/Rat BDNF protein (Peprotech) (protein, UniProt P23560 19-247, looked up) Neurotrophic factor BDNF …: APMKEANIRGQGGLAYPGVRTHGTLESVNGPKAGSRGLTSLADTFEHVIEELLDEDQKVRPNEENNKDADLYTSRVMLSSQVPLEPPLLFLLEEYKNYLDAANMSMRVRRHSDPARRGELSVCDSISEWVTAADKKTAVDMSGGTVTVLEKVPVSKGQLKQYFYETKCNPMGYTKEGCRGIDKRHWNSQCRTTQSYVRALTMDSKKRIGWRFIRIDTSCVCTLTIKRGR | – | – | – | completely blocked | significant increase | no longer showing p-TrkB after 12 h
